Our source for the P450 function and NO synthesis values is US20090137034A1, “METHODS FOR PERFUSION AND PLATING OF PRIMARY HEPATOCYTES AND A MEDIUM THEREFORE” (MASSACHUSETTS INSTITUTE OF TECHNOLOGY, priority 2002, published 2009).

Data set [1] deals with CYP 1A1. Nature of the data set: CYP 1A1 inducibility/P450 function in primary hepatocytes in collagen sandwich culture (EROD assay, 3-MC induction). The data set is classed as cell-based. The note with it: mechanism under investigation. As to the method: To study the effect of different compounds on the function of hepatocyte function and phenotype, hepatocytes were isolated according to techniques well known in the art and cultured in a collagen sandwich configuration. Hepatocytes were induced with the addition of 2 nM 3-methylcholanthrene (3-MC). CYP 1A1 was measured using the EROD assay as described in Pearce et al., 1996. Albumin secretion was measured using ELISA, as described in Dunn et al., 1991. Western blot analysis was performed using techniques well known in the art, using an antibody to CYP1A1.

The test system of data set [2] is activated macrophages. The note with it: stated as an observation, no source given; cited from earlier work.

For the compound `N[C@H]1C(O)O[C@H](CO)[C@@H](O)[C@@H]1O` (some centres unmarked) [glucosamine], the P450 function entry in data set [1] was “protection of P450 function”. Also, the NO synthesis result in data set [2] is listed as “inhibits NO synthesis”.
